For this test, the target named is T1, catalytic domain of human Bub1 (amino acids 704-1085) (Homo sapiens, UniProt O43683).
T1 construct: catalytic domain of human Bub1 (amino acids 704-1085); His6 (N); made in house; host or cells: Hi5 insect cells
Nature of the test: Bub1 kinase assay (TR-FRET). The conditions noted are these: TR-FRET; ATP 10 μM, peptide substrate 1 μM; 60 min at 22° C.; average or median if tested more than once; read-out: Inhibition of Bub1 kinase IC50. The test is classed as biochemical. An outline of the steps:
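Eleven concentrations (0.1 nM–20 μM, duplicate) fitted by 4-parameter logistic for IC50. Read-out: EDTA-stopped TR-FRET (665/620 nm) detecting anti-phosphoserine binding to biotin-peptide (1 μM). Reaction used 10 μM ATP, 60 min at 22 °C, after 15 min compound preincubation with His-tagged human Bub1 704-1085.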
Background: In TR-FRET formats the signal depends on donor and acceptor labels being close together.

T1 sequence (O43683 704-1085): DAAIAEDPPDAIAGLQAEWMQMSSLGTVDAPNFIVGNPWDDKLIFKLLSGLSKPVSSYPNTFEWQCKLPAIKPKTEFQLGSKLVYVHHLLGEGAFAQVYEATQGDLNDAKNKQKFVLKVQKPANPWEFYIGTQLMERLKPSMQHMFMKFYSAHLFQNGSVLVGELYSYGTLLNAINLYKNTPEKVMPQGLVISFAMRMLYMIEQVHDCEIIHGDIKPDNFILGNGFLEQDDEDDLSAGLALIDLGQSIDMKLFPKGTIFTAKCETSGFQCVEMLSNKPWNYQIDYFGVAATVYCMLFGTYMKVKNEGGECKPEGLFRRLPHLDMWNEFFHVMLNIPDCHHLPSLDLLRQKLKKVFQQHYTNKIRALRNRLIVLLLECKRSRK

Usually IC50 stands for the midpoint of a concentration-inhibition curve. For the molecule `CC(=O)Nc1cc(-c2[nH]c3c(c2Nc2ccccc2)C(=O)CN(S(=O)(=O)c2cnc[nH]2)C3)ccn1` [Example 117, N-{4-[6-(1H-Imidazol-5-ylsulfonyl)-4-oxo-3-(phenylamino)-4,5,6,7-tetrahydro-1H-pyrrolo[2,3-c]pyridin-2-yl]pyridin-2-yl}acetamide], the IC50 turned out to be 9 nM.

On to `COc1ccc(C(=O)Nc2cc(-c3[nH]c4c(c3Nc3ccccc3)C(=O)CN(C(=O)OC(C)(C)C)C4)ccn2)cc1` [Example 270, tert-Butyl 2-2-[(4-methoxybenzoyl)amino]pyridin-4-yl-4-oxo-3-(phenylamino)-1,4,5,7-tetrahydro-6H-pyrrolo[2,3-c]pyridine-6-carboxylate], for which the IC50 was 37 nM. For the molecule `CC(C)(C)SC(=O)N1CC(=O)c2c([nH]c(-c3ccnc(NC(=O)[C@@H]4C[C@@H]4F)c3)c2Nc2ccccc2)C1` [Example 308, S-tert-Butyl 3-anilino-2-[2-({[(1S,2S)-2-fluorocyclopropyl]carbonyl}amino)pyridin-4-yl]-4-oxo-1,4,5,7-tetrahydro-6H-pyrrolo[2,3-c]pyridine-6-carbothioate], the IC50 stood at 31 nM. As to `O=C(Nc1cc(-c2[nH]c3c(c2Nc2ccccc2)C(=O)COC3)ccn1)c1cnco1` [Example 50, N-{4-[4-Oxo-3-(phenylamino)-1,4,5,7-tetrahydropyrano[3,4-b]pyrrol-2-yl]pyridin-2-yl}-1,3-oxazole-5-carboxamide], the IC50 is 26 nM. For `Cc1cnccc1-c1[nH]c2c(c1Nc1ccccc1)C(=O)COC2` [Example 40, 2-(3-Methylpyridin-4-yl)-3-(phenylamino)-1,7-dihydropyrano[3,4-b]pyrrol-4(5H)-one], the IC50 stood at 1470 nM.

Take `CC(=O)Nc1cc(-c2[nH]c3c(c2Nc2ccc(F)cc2)C(=O)CN(C(=O)OC(C)C)C3)ccn1` [Example 316, Propan-2-yl 2-[2-(acetylamino)pyridin-4-yl]-3-[(4-fluorophenyl)amino]-4-oxo-1,4,5,7-tetrahydro-6H-pyrrolo[2,3-c]pyridine-6-carboxylate]: the IC50 came to 25 nM. On to `CC(C)S(=O)(=O)N1CC(=O)c2c([nH]c(-c3ccnc(NC(=O)[C@@H]4C[C@@H]4F)c3)c2Nc2ccccc2)C1` [Example 214, (1S,2S)-2-Fluoro-N-4-[4-oxo-3-(phenylamino)-6-(propan-2-ylsulfonyl)-4,5,6,7-tetrahydro-1H-pyrrolo[2,3-c]pyridin-2-yl]pyridin-2-ylcyclopropanecarboxamide], for which the IC50 came to 3 nM.

As to `CCC(=O)N1CC(=O)c2c([nH]c(-c3ccnc(NC(=O)[C@@H]4C[C@@H]4F)c3)c2Nc2ccccc2)C1` [Example 198, (1S,2S)-2-Fluoro-N-4-[4-oxo-3-(phenylamino)-6-propanoyl-4,5,6,7-tetrahydro-1H-pyrrolo[2,3-c]pyridin-2-yl]pyridin-2-ylcyclopropanecarboxamide], the IC50 is 3 nM. Consider `COC(=O)N1CC(=O)c2c([nH]c(-c3ccnc(NC(C)=O)c3)c2Nc2ccccc2)C1` [Example 31, Methyl 2-[2-(acetylamino)pyridin-4-yl]-4-oxo-3-(phenylamino)-1,4,5,7-tetrahydro-6H-pyrrolo[2,3-c]pyridine-6-carboxylate], for which the IC50 amounted to 7 nM.

Take `CC(=O)Nc1cc(-c2[nH]c3c(c2Nc2ccccc2)C(=O)CN(C(=O)c2cn(C)cn2)C3)ccn1` [Example 118, N-(4-{6-[(1-Methyl-1H-imidazol-4-yl)carbonyl]-4-oxo-3-(phenylamino)-4,5,6,7-tetrahydro-1H-pyrrolo[2,3-c]pyridin-2-yl}pyridin-2-yl)acetamide]: the IC50 was determined as 149 nM.

Turning to `CC(=O)Nc1cc(-c2[nH]c3c(c2Nc2ccccc2)C(=O)CN(C(=O)c2cccnc2)C3)ccn1` [Example 115, N-{4-[4-Oxo-3-(phenylamino)-6-(pyridin-3-ylcarbonyl)-4,5,6,7-tetrahydro-1H-pyrrolo[2,3-c]pyridin-2-yl]pyridin-2-yl}acetamide], the IC50 worked out at 45 nM.

For `CC(C)(C)OC(=O)N1CC(=O)c2c([nH]c(-c3ccncc3Br)c2Nc2ccccc2)C1` [Example 100, tert-Butyl 2-(3-bromopyridin-4-yl)-4-oxo-3-(phenylamino)-1,4,5,7-tetrahydro-6H-pyrrolo[2,3-c]pyridine-6-carboxylate], the IC50 was found to be 26 nM.

Regarding `CC(=O)Nc1cc(-c2[nH]c3c(c2Nc2ccccc2)C(=O)CN(C(=O)OC(C)C)C3)ccn1` [Example 185, Isopropyl 2-(2-acetamidopyridin-4-yl)-3-anilino-4-oxo-1,4,5,7-tetrahydro-6H-pyrrolo[2,3-c]pyridine-6-carboxylate], the IC50 was 14 nM. As to `CC(=O)Nc1cc(-c2[nH]c3c(c2Nc2ccccc2)C(=O)CN(C(=O)CC(F)(F)F)C3)ccn1` [Example 169, N-{4-[3-Anilino-4-oxo-6-(3,3,3-trifluoropropanoyl)-4,5,6,7-tetrahydro-1H-pyrrolo[2,3-c]pyridin-2-yl]pyridin-2-yl}acetamide], the IC50 was 5 nM. Regarding `CC(=O)Nc1cc(-c2[nH]c3c(c2Nc2ccccc2)C(=O)CN(S(=O)(=O)N(C)C)C3)ccn1` [Example 254, N-4-[6(Dimethylsulfamoyl)-4-oxo-3-(phenylamino)-4,5,6,7-tetrahydro-1H-pyrrolo[2,3-c]pyridin-2-yl]pyridin-2-ylacetamide], the IC50 is 4 nM. For `CSCCC(=O)N1CC(=O)c2c([nH]c(-c3ccnc(NC(C)=O)c3)c2Nc2ccccc2)C1` [Example 192], the IC50 is 30 nM. As to `Cn1cnc(C(=O)N2CC(=O)c3c([nH]c(-c4ccncc4)c3Nc3ccccc3)C2)c1` [Example 60, 6-[(1-Methyl-1H-imidazol-4-yl)carbonyl]-3-(phenylamino)-2-(pyridin-4-yl)-1,5,6,7-tetrahydro-4H-pyrrolo[2,3-c]pyridin-4-one], the IC50 was 67 nM. Next, `CC(C)C(=O)N1CC(=O)c2c([nH]c(-c3ccncc3)c2Nc2ccccc2)C1` [Example 17]: 6 nM. The figure for `CC(=O)Nc1cc(-c2[nH]c3c(c2Nc2ccccc2)C(=O)CN(C(=O)c2cncs2)C3)ccn1` [Example 175, N-{4-[3-Anilino-4-oxo-6-(1,3-thiazol-5-ylcarbonyl)-4,5,6,7-tetrahydro-1H-pyrrolo[2,3-c]pyridin-2-yl]pyridin-2-yl}acetamide] is 8 nM; for `Nc1cc(-c2[nH]c3c(c2Nc2ccccc2)C(=O)CNC3)ccn1` [Example 21, 2-(2-Aminopyridin-4-yl)-3-(phenylamino)-1,5,6,7-tetrahydro-4H-pyrrolo[2,3-c]pyridin-4-one] it is 794 nM. Next, `COC(=O)N1CC(=O)c2c([nH]c(-c3ccnc(NC(=O)[C@H]4C[C@H]4F)c3)c2Nc2ccccc2)C1` [Example 141, Methyl 3-anilino-2-[2-({[(1R,2R)-2-fluorocyclopropyl]carbonyl}amino)pyridin-4-yl]-4-oxo-1,4,5,7-tetrahydro-6H-pyrrolo[2,3-c]pyridine-6-carboxylate]: 7 nM; `O=C1CN(C(=O)c2cnc[nH]2)Cc2[nH]c(-c3ccncc3)c(Nc3ccccc3)c21` [Example 59, 6-(1H-Imidazol-5-ylcarbonyl)-3-(phenylamino)-2-(pyridin-4-yl)-1,5,6,7-tetrahydro-4H-pyrrolo[2,3-c]pyridin-4-one]: 10 nM; `O=C1CN(C(=O)C2CC2)Cc2[nH]c(-c3ccncc3)c(Nc3ccccc3)c21` [Example 5, 6-(Cyclopropylcarbonyl)-3-(phenylamino)-2-(pyridin-4-yl)-1,5,6,7-tetrahydro-4H-pyrrolo[2,3-c]pyridin-4-one]: 5 nM. Turning to `CC(C)S(=O)(=O)N1CC(=O)c2c([nH]c(-c3ccncc3OCC(F)(F)F)c2Nc2ccccc2)C1` [Example 247, 3-(Phenylamino)-6-(propan-2-ylsulfonyl)-2-[3-(2,2,2-trifluoroethoxy)pyridin-4-yl]-1,5,6,7-tetrahydro-4H-pyrrolo[2,3-c]pyridin-4-one], the IC50 is 65 nM. On to `CNS(=O)(=O)N1CC(=O)c2c([nH]c(-c3ccnc(NC(C)=O)c3)c2Nc2ccc(C)cc2)C1` [Example 322], for which the IC50 came to 41 nM.

On to `COc1cc(C(=O)Nc2cc(-c3[nH]c4c(c3Nc3ccccc3)C(=O)CNC4)ccn2)ccc1F` [Example 257], for which the IC50 was determined as 35 nM. Regarding `CC(=O)Nc1cc(-c2[nH]c3c(c2Nc2ccccc2)C(=O)CN(C(=O)CC(C)(C)O)C3)ccn1` [Example 177, N-{4-[3-Anilino-6-(3-hydroxy-3-methylbutanoyl)-4-oxo-4,5,6,7-tetrahydro-1H-pyrrolo[2,3-c]pyridin-2-yl]pyridin-2-yl}acetamide], the IC50 is 23 nM.

For `CN(C)S(=O)(=O)N1CC(=O)c2c([nH]c(-c3ccnc(NC(=O)C4(F)CC4)c3)c2Nc2ccccc2)C1` [Example 273, N-4-[6-(Dimethylsulfamoyl)-4-oxo-3-(phenylamino)-4,5,6,7-tetrahydro-1H-pyrrolo[2,3-c]pyridin-2-yl]pyridin-2-yl-1-fluorocyclopropanecarboxamide], the IC50 was 11 nM. In the case of `CC(C)OC(=O)N1CC(=O)c2c([nH]c(-c3ccnc(NC(=O)c4cncs4)c3)c2Nc2ccccc2)C1` [Example 156, Isopropyl 3-anilino-4-oxo-2-{2-[(1,3-thiazol-5-ylcarbonyl)amino]pyridin-4-yl}-1,4,5,7-tetrahydro-6H-pyrrolo[2,3-c]pyridine-6-carboxylate], the IC50 was determined as 12 nM. Turning to `CC(C)(O)CC(=O)N1CC(=O)c2c([nH]c(-c3ccncc3)c2Nc2ccccc2)C1` [Example 57, 6-(3-Hydroxy-3-methylbutanoyl)-3-(phenylamino)-2-(pyridin-4-yl)-1,5,6,7-tetrahydro-4H-pyrrolo[2,3-c]pyridin-4-one], the IC50 was 8 nM.

Consider `N#CCN1CC(=O)c2c([nH]c(-c3ccncc3)c2Nc2ccccc2)C1` [Example 98, [4-Oxo-3-(phenylamino)-2-(pyridin-4-yl)-1,4,5,7-tetrahydro-6H-pyrolo[2,3-c]pyridin-6-yl]acetonitrile], for which the IC50 was 16 nM.
